Paper PMC6427567, “Discovery of novel coumarin derivatives as potent and orally bioavailable BRD4 inhibitors based on scaffold hopping” (Journal of Enzyme Inhibition and Medicinal Chemistry, 2019)

What was measured:
[1] = target: T1, BRD4-full length: recombinant human bromodomain containing protein 4 (bromodomain 1 and 2; aa 2–1362) (Homo sapiens, UniProt O60885); test: BRD4 binding assay (AlphaScreen); conditions: for IC50 / BRD4 binding activity in words: AlphaScreen assay; for LE (Ligand Efficiency): LE = 1.4 (pIC50/heavy atoms)
T1 construct: (bromodomain 1 and 2; aa 2–1362; Genbank Accesstion # NM_058243); host or cells: Sf9 insect cells
Description: The binding affinity was evaluated by a using AlphaScreen technology […] assay. The biotinylated peptide binding to the reader domain of His-tagged protein is monitored by the singlet oxygen transfer from the Streptavidin-coated donor beads to the AlphaScreen Ni-chelate acceptor beads. Reagent:Reaction buffer:50 mM Hepes, pH7.5, 100 mM NaCl, 0.05% CHAPS, 0.1% BSA, and 1% DMSO (the final DMSO concentration may different depending on compound stock and test concentrations). […] MW = 156.5 kDa. […] Reaction procedure: (1) Deliver 2.5× BRD in wells of reaction plate except No BRD control wells. Add buffer instead. (2) Deliver compounds in 100% DMSO into the BRD mixture by Acoustic technology (Echo550; nanoliter range). Spin down and pre-incubation for 30 min. (3) Deliver 5 × Ligand. Spin and shake. (4) Incubate for 30 min at room temperature with gentle shaking. (5) Deliver 5× donor beads. Spin and shake. (6) Deliver 5 × acceptor beads. Spin and shake. Then gentle shaking in the dark for 60 min. (7) Alpha measurement (Ex/Em = 680/520–620 nm) in Enspire.

[2] = design: method as in PMID 23095041; conditions: cited from earlier work

SMILES	IC50 [1] [µM]	LE (Ligand Efficiency) [1]	other results
O=c1ccc2cc(NS(=O)(=O)C3CCCCC3)ccc2o1 [Compound 2, N-(2-oxo-2H-chromen-6-yl)cyclohexanesulphonamide]	19	0.31	–
O=c1ccc2cc(NS(=O)(=O)C3CCCC3)ccc2o1 [Compound 3, N-(2-oxo-2H-chromen-6-yl)cyclopentanesulphonamide]	17.9	0.33	–
O=c1ccc2cc(NS(=O)(=O)c3ccc(Cl)cc3)ccc2o1 [Compound 6, 4-chloro-N-(2-oxo-2H-chromen-6-yl)benzenesulphonamide]	2.97	0.34	–
COc1ccc(S(=O)(=O)Nc2ccc3oc(=O)ccc3c2)cc1 [Compound 7, 4-methoxy-N-(2-oxo-2H-chromen-6-yl)benzene sulphonamide]	7.31	0.33	–
O=c1ccc2cc(NS(=O)(=O)c3ccccc3Cl)ccc2o1 [Compound 10, 2-chloro-N-(2-oxo-2H-chromen-6-yl)benzenesulphonamide]	2.21	0.36	–
COc1ccccc1S(=O)(=O)Nc1ccc2oc(=O)ccc2c1 [Compound 11, 2-methoxy-N-(2-oxo-2H-chromen-6-yl)benzenesulphonamide]	0.98	0.37	lipophilic efficiency (LipE) ([1]; LipE = −lg (IC50) − logP): 3.9; fold more potent than 1 (BRD4 IC50) ([1]; compared with compound 1): approximately 7 fold
O=c1ccc2cc(NS(=O)(=O)c3ccc(Cl)cc3Cl)ccc2o1 [Compound 12, 2,4-dichloro-N-(2-oxo-2H-chromen-6-yl)benzenesulphonamide]	1.77	0.35	–
O=c1ccc2cc(NS(=O)(=O)c3ccc4c(c3)CCO4)ccc2o1 [Compound 16, N-(2-oxo-2H-chromen-6-yl)-2,3-dihydrobenzofuran-5-sulphonamide]	18.4	0.28	BRD4 binding activity in words [1]: reduction of affinity
COc1ccccc1S(=O)(=O)Nc1ccc2c(c1)CN(C)C(=O)N2 [PFI-1]	–	–	oral bioavailability (F) [2]: 32%

The remaining molecules from weak to strong by IC50 [1], led by results:

IC50 [1] [µM]	LE (Ligand Efficiency) [1]	SMILES	other results
38.5	0.34	CCCS(=O)(=O)Nc1ccc2oc(=O)ccc2c1 [Compound 4, N-(2-oxo-2H-chromen-6-yl)propane-1-sulphonamide]	–
32.6	–	COc1ccc(NS(=O)(=O)c2ccc3oc(=O)ccc3c2)cc1 [Compound 17, N-(4-methoxyphenyl)-2-oxo-2H-chromene-6-sulphonamide]	fold decrease in potency compared with 7 (BRD4) ([1]; compared with compound 7): ~5 fold
30	0.33	CCCCS(=O)(=O)Nc1ccc2oc(=O)ccc2c1 [Compound 5, N-(2-oxo-2H-chromen-6-yl)butane-1-sulphonamide]	–
12.2	0.28	O=c1ccc2cc(NS(=O)(=O)c3ccc4ccccc4c3)ccc2o1 [Compound 15, N-(2-oxo-2H-chromen-6-yl)naphthalene-2-sulphonamide]	BRD4 binding activity in words [1]: reduction of affinity
9.26	0.35	O=c1ccc2cc(NS(=O)(=O)c3cccs3)ccc2o1 [Compound 14, N-(2-oxo-2H-chromen-6-yl)thiophene-2-sulphonamide]	BRD4 binding activity in words [1]: low binding activity
6.59	0.35	O=c1ccc2cc(NS(=O)(=O)c3ccccc3)ccc2o1 [Compound 1, N-(2-oxo-2H-chromen-6-yl)benzenesulphonamide]	–
5.09	0.30	CC(C)(C)c1ccc(S(=O)(=O)Nc2ccc3oc(=O)ccc3c2)cc1 [Compound 8, 4-(tert-butyl)-N-(2-oxo-2H-chromen-6-yl)benzene sulphonamide]	–
5.03	0.32	N#Cc1cccc(S(=O)(=O)Nc2ccc3oc(=O)ccc3c2)c1 [Compound 9, 3-cyano-N-(2-oxo-2H-chromen-6-yl)benzene sulphonamide]	–
